Experimental data as given in BindingDB's records for doi:10.1021/jm2012062 (Universidade Federal De Santa Catarina, 2012).

Molecular target: T1, Low molecular weight protein-tyrosine phosphatase A (Mycobacterium tuberculosis (strain ATCC 25618 / H37Rv), UniProt P9WIA1)
T1 sequence (P9WIA1 whole entry): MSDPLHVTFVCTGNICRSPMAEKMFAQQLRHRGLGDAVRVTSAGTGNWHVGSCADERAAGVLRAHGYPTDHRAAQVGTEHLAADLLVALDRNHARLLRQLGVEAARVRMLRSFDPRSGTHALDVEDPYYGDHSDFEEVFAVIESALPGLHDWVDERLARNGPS
Assay: Inhibition of Mycobacterium tuberculosis PTP-A

SMILES	IC50 [µM]
COc1cc(-c2[nH]ccc2Cl)oc1C1=c2[nH]c3cc2[C@H](C(C)C)[C@H]1CCCCCCCC=3	8.8
C=c1[nH]c(=Cc2[nH]c(-c3ccc[nH]3)cc2OC)cc1CCCCC [PRODIGIOSIN]	8.8
